Data: publication PMC4028973 (Journal of the American Chemical Society, 2014)
Where two headings read alike, the source gives them in different places.

What was measured:
AsbA [1] = biological target: T1, AsbA (Bacillus anthracis, UniProt A0A0F7RJ52); format: biochemical, B. anthracis; details: read-out: IC50 against AsbA
AsbB = AsbB (Bacillus anthracis, UniProt Q81RQ8); format: biochemical, B. anthracis; details: for IC50: read-out: IC50 against AsbB
SbnE [2] = biological target: T2, SbnE (Staphylococcus aureus, UniProt Q2G1M9); format: biochemical, S. aureus; details: read-out: IC50 against SbnE
T2 sequence (Q2G1M9 1-578): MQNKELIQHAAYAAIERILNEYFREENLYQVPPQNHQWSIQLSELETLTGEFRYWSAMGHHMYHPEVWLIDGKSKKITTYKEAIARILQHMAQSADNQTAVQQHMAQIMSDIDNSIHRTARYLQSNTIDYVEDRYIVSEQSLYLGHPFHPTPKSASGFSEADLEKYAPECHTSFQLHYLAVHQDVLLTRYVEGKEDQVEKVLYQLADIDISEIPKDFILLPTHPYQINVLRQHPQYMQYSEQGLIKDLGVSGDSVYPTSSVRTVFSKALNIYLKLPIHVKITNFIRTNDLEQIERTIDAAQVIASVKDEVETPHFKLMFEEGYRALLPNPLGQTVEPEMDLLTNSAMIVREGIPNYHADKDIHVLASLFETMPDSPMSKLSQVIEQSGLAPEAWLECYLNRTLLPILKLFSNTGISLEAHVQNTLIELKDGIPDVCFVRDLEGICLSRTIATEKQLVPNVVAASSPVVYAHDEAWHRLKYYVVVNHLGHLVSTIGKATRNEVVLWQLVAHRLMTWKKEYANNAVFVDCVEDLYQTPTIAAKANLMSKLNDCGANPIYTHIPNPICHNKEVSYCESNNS

MRSA (USA 300) = format: cell-based, S. aureus
S. flexneri (BS103) = format: cell-based, Shigella flexneri
S. typhimurium = format: cell-based, Salmonella typhimurium
SbnE [3] = biological target: T2, SbnE; format: biochemical, S. aureus
E. coli (MC 1061) = format: cell-based
[4] = system: B. anthracis (Sterne 34F2); format: cell-based
S. aureus (Newman) = format: cell-based
AsbA [5] = biological target: T1, AsbA; format: biochemical, B. anthracis

T1 sequence (A0A0F7RJ52 whole entry, looked up): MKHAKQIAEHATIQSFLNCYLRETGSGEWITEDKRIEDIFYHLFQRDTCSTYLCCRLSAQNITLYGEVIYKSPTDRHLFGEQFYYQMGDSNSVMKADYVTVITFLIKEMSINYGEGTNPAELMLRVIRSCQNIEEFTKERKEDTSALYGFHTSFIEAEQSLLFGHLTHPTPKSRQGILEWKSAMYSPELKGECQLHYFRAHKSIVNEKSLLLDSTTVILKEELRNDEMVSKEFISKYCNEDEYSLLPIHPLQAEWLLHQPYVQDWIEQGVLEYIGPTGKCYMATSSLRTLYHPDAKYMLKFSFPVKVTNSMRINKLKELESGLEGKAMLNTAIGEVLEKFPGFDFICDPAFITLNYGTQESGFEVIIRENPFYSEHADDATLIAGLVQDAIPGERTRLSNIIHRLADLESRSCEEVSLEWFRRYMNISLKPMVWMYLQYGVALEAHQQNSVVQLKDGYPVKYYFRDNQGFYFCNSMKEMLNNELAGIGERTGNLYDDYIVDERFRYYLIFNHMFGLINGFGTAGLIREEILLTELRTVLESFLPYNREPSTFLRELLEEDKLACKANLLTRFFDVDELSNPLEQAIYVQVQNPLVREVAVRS
Chain of AsbB (Q81RQ8 whole entry, looked up): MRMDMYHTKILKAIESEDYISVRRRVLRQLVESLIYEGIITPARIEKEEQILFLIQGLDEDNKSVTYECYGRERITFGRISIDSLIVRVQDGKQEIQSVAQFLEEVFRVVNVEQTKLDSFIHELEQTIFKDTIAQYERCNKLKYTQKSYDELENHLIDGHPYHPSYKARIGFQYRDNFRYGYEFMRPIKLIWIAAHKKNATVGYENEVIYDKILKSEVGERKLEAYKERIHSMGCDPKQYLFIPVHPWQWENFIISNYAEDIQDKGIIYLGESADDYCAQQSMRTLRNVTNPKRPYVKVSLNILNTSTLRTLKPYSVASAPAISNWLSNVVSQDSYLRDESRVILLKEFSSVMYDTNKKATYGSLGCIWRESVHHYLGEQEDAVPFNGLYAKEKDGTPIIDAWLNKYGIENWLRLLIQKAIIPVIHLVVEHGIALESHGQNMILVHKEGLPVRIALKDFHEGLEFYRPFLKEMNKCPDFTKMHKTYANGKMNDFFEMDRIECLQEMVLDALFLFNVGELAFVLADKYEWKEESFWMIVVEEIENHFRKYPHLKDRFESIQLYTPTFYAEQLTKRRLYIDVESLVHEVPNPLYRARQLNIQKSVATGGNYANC

SMILES: CCC(=O)[C@H](C)C[C@@H](C)C[C@H](C)CC[C@@H](O)C[C@@H](O)[C@@H](CC(C)C)[C@@H](O)c1cc(O)cc(O)c1 [BmcA, baulamycin A]
- IC50 (AsbA [1]): 180 µM
- inhibition against AsbB (in words) (AsbB): negligible
- IC50 (AsbB): > 1000 µM
- IC50 (SbnE [2]): 4.8 µM
- IC50 (MRSA (USA 300); read-out: IDM IC50, MRSA (USA 300)): 130 µM
- IC50 (MRSA (USA 300); read-out: IRM IC50, MRSA (USA 300)): 130 µM
- IC50 (S. flexneri (BS103); read-out: IDM IC50, S. flexneri (BS103)): 20 µM
- IC50 (S. flexneri (BS103); read-out: IRM IC50, S. flexneri (BS103)): 46 µM
- IC50 (S. typhimurium; read-out: IC50, S. typhimurium, iron-depleted conditions): > 1000 µM
- IC50 (S. typhimurium; read-out: IC50, S. typhimurium, iron-rich conditions): > 1000 µM
- IC50 (S. typhimurium; read-out: IDM IC50, S. typhimurium): > 1000 µM
- IC50 (S. typhimurium; read-out: IRM IC50, S. typhimurium): > 1000 µM
- mode of inhibition of SbnE (SbnE [3]): reversible, competitive
- Ki (SbnE [3]; read-out: Ki, SbnE, with respect to ATP): 680 µM
- Ki (SbnE [3]; read-out: Ki, SbnE, with respect to citric acid): 50 µM
- Ki (SbnE [3]; read-out: Ki, SbnE, with respect to polyamine substrate): 210 µM
- IC50 (E. coli (MC 1061); read-out: IDM IC50, E. coli (MC 1061)): 4.2 µM
- IC50 (E. coli (MC 1061); read-out: IRM IC50, E. coli (MC 1061)): 150 µM
- IC50 ([4]; read-out: IDM IC50, B. anthracis (Sterne 34F2)): 110 µM
- IC50 ([4]; read-out: IRM IC50, B. anthracis (Sterne 34F2)): 120 µM
- IC50 (S. aureus (Newman); read-out: IDM IC50, S. aureus (Newman)): 69 µM
- IC50 (S. aureus (Newman); read-out: IRM IC50, S. aureus (Newman)): 86 µM
- mode of inhibition of AsbA (AsbA [5]): reversible, competitive
- Ki (AsbA [5]; read-out: Ki, AsbA, with respect to ATP): 230 µM
- Ki (AsbA [5]; read-out: Ki, AsbA, with respect to citric acid): 110 µM
- Ki (AsbA [5]; read-out: Ki, AsbA, with respect to polyamine substrate): 170 µM

SMILES: CC(=O)[C@H](C)C[C@@H](C)C[C@H](C)CC[C@@H](O)C[C@@H](O)[C@@H](CC(C)C)[C@@H](O)c1cc(O)cc(O)c1 [BmcB, baulamycin B]
- IC50 (AsbA [1]): 200 µM
- inhibition against AsbB (in words) (AsbB): negligible
- IC50 (AsbB): > 1000 µM
- IC50 (SbnE [2]): 19 µM
- potency against S. aureus (Newman) cultures compared with BmcA (in words) (S. aureus (Newman)): significantly less potent
